{"source": "PubChem BioAssay AID1963828", "about": "(Molecular Pharmacology Branch, DTP, NCI, 2024);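 note: spheroids exposed to compounds for 7 days before readout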;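 for viability, T/C: 100% = DMSO vehicle control viability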", "tested_on": "991263-137-R1-J2-PDC complex spheroid viability", "assay": "Anticancer human tumor 991263-137-R1-J2-PDC patient-derived colon adenocarcinoma cell line growth inhibition [POLQ]", "settings": "for IC50: curve of first compound; for viability, T/C: stronger effect = lower value", "method_in_brief": "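Growth inhibition in 3D: complex spheroids (tumor PDC, HUVEC, MSC) treated with POLQ inhibitor combinations; where Cmax unknown, highest tested concentration 10 microM, except SN-38 at 1 microM.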", "key": {"[1]": {"settings": "second compound 0.0316 µM, first compound 0.0316 µM"}, "[2]": {"settings": "second compound 0.0316 µM, first compound 0.1 µM"}, "[3]": {"settings": "second compound 0.0316 µM, first compound 0.316 µM"}, "[4]": {"settings": "second compound 0.0316 µM, first compound 1 µM"}, "[5]": {"settings": "second compound 0.0316 µM, first compound 3.16 µM"}, "[6]": {"settings": "second compound 0.0316 µM, first compound 10 µM"}, "[7]": {"settings": "second compound 0.1 µM, first compound 0.0316 µM"}, "[8]": {"settings": "second compound 0.1 µM, first compound 0.1 µM"}, "[9]": {"settings": "second compound 0.1 µM, first compound 0.316 µM"}, "[10]": {"settings": "second compound 0.1 µM, first compound 1 µM"}, "[11]": {"settings": "second compound 0.1 µM, first compound 3.16 µM"}, "[12]": {"settings": "second compound 0.1 µM, first compound 10 µM"}, "[13]": {"settings": "second compound 0.316 µM, first compound 0.0316 µM"}, "[14]": {"settings": "second compound 0.316 µM, first compound 0.1 µM"}, "[15]": {"settings": "second compound 0.316 µM, first compound 0.316 µM"}, "[16]": {"settings": "second compound 0.316 µM, first compound 1 µM"}, "[17]": {"settings": "second compound 0.316 µM, first compound 3.16 µM"}, "[18]": {"settings": "second compound 0.316 µM, first compound 10 µM"}, "[19]": {"settings": "second compound 1 µM, first compound 0.0316 µM"}, "[20]": {"settings": "second compound 1 µM, first compound 0.1 µM"}, "[21]": {"settings": "second compound 1 µM, first compound 0.316 µM"}, "[22]": {"settings": "second compound 1 µM, first compound 1 µM"}, "[23]": {"settings": "second compound 1 µM, first compound 3.16 µM"}, "[24]": {"settings": "second compound 1 µM, first compound 10 µM"}, "[25]": {"settings": "second compound 3.16 µM, first compound 0.0316 µM"}, "[26]": {"settings": "second compound 3.16 µM, first compound 0.1 µM"}, "[27]": {"settings": "second compound 3.16 µM, first compound 0.316 µM"}, "[28]": {"settings": "second compound 3.16 µM, first compound 1 µM"}, "[29]": {"settings": "second compound 3.16 µM, first compound 3.16 µM"}, "[30]": {"settings": "second compound 3.16 µM, first compound 10 µM"}, "[31]": {"settings": "second compound 10 µM, first compound 0.0316 µM"}, "[32]": {"settings": "second compound 10 µM, first compound 0.1 µM"}, "[33]": {"settings": "second compound 10 µM, first compound 0.316 µM"}, "[34]": {"settings": "second compound 10 µM, first compound 1 µM"}, "[35]": {"settings": "second compound 10 µM, first compound 3.16 µM"}, "[36]": {"settings": "second compound 10 µM, first compound 10 µM"}}, "data": [{"smiles": "CC1COCCN1c1cc(-c2ccnn2C)c2ccnc(-c3ccn[nH]3)c2n1", "note": "(centres undefined) + Cc1cccc(N(C)C(=O)C2C(O)CCN2c2nc(C)cc(C(F)(F)F)c2C#N)c1", "values": [{"measurement": "IC50", "setting": "second compound 0.0316 µM", "result": 948, "unit": "nM"}, {"measurement": "IC50", "setting": "second compound 0.1 µM", "result": 1000, "unit": "nM"}, {"measurement": "IC50", "setting": "second compound 0.316 µM", "result": 770, "unit": "nM"}, {"measurement": "IC50", "setting": "second compound 1 µM", "result": 990, "unit": "nM"}, {"measurement": "IC50", "setting": "second compound 3.16 µM", "result": 1430, "unit": "nM"}, {"measurement": "IC50", "setting": "second compound 10 µM", "result": 851, "unit": "nM"}, {"measurement": "viability, T/C", "setting": "[1]", "result": 99.7, "unit": "%"}, {"measurement": "viability, T/C", "setting": "[2]", "result": 96.8, "unit": "%"}, {"measurement": "viability, T/C", "setting": "[3]", "result": 81.5, "unit": "%"}, {"measurement": "viability, T/C", "setting": "[4]", "result": 47.6, "unit": "%"}, {"measurement": "viability, T/C", "setting": "[5]", "result": 36.2, "unit": "%"}, {"measurement": "viability, T/C", "setting": "[6]", "result": 29.4, "unit": "%"}, {"measurement": "viability, T/C", "setting": "[7]", "result": 125, "unit": "%"}, {"measurement": "viability, T/C", "setting": "[8]", "result": 97.6, "unit": "%"}, {"measurement": "viability, T/C", "setting": "[9]", "result": 81.8, "unit": "%"}, {"measurement": "viability, T/C", "setting": "[10]", "result": 45.2, "unit": "%"}, {"measurement": "viability, T/C", "setting": "[11]", "result": 35.7, "unit": "%"}, {"measurement": "viability, T/C", "setting": "[12]", "result": 33.5, "unit": "%"}, {"measurement": "viability, T/C", "setting": "[13]", "result": 94.4, "unit": "%"}, {"measurement": "viability, T/C", "setting": "[14]", "result": 110, "unit": "%"}, {"measurement": "viability, T/C", "setting": "[15]", "result": 75.4, "unit": "%"}, {"measurement": "viability, T/C", "setting": "[16]", "result": 44.3, "unit": "%"}, {"measurement": "viability, T/C", "setting": "[17]", "result": 35.1, "unit": "%"}, {"measurement": "viability, T/C", "setting": "[18]", "result": 28.8, "unit": "%"}, {"measurement": "viability, T/C", "setting": "[19]", "result": 90.3, "unit": "%"}, {"measurement": "viability, T/C", "setting": "[20]", "result": 99.3, "unit": "%"}, {"measurement": "viability, T/C", "setting": "[21]", "result": 64.3, "unit": "%"}, {"measurement": "viability, T/C", "setting": "[22]", "result": 53.3, "unit": "%"}, {"measurement": "viability, T/C", "setting": "[23]", "result": 39.3, "unit": "%"}, {"measurement": "viability, T/C", "setting": "[24]", "result": 30.7, "unit": "%"}, {"measurement": "viability, T/C", "setting": "[25]", "result": 88.8, "unit": "%"}, {"measurement": "viability, T/C", "setting": "[26]", "result": 114, "unit": "%"}, {"measurement": "viability, T/C", "setting": "[27]", "result": 89, "unit": "%"}, {"measurement": "viability, T/C", "setting": "[28]", "result": 58.2, "unit": "%"}, {"measurement": "viability, T/C", "setting": "[29]", "result": 32.9, "unit": "%"}, {"measurement": "viability, T/C", "setting": "[30]", "result": 31.6, "unit": "%"}, {"measurement": "viability, T/C", "setting": "[31]", "result": 103, "unit": "%"}, {"measurement": "viability, T/C", "setting": "[32]", "result": 104, "unit": "%"}, {"measurement": "viability, T/C", "setting": "[33]", "result": 78.3, "unit": "%"}, {"measurement": "viability, T/C", "setting": "[34]", "result": 46, "unit": "%"}, {"measurement": "viability, T/C", "setting": "[35]", "result": 34.9, "unit": "%"}, {"measurement": "viability, T/C", "setting": "[36]", "result": 32.1, "unit": "%"}]}, {"smiles": "CC1COCCN1c1cc(C2(S(C)(=N)=O)CC2)nc(-c2ccnc3[nH]ccc23)n1", "note": "(centres undefined) + Cc1cccc(N(C)C(=O)C2C(O)CCN2c2nc(C)cc(C(F)(F)F)c2C#N)c1", "values": [{"measurement": "IC50", "setting": "second compound 0.0316 µM", "result": "> 10000", "unit": "nM"}, {"measurement": "IC50", "setting": "second compound 0.1 µM", "result": "> 10000", "unit": "nM"}, {"measurement": "IC50", "setting": "second compound 0.316 µM", "result": "> 10000", "unit": "nM"}, {"measurement": "IC50", "setting": "second compound 1 µM", "result": "> 10000", "unit": "nM"}, {"measurement": "IC50", "setting": "second compound 3.16 µM", "result": "> 10000", "unit": "nM"}, {"measurement": "IC50", "setting": "second compound 10 µM", "result": "> 10000", "unit": "nM"}, {"measurement": "viability, T/C", "setting": "[1]", "result": 96.9, "unit": "%"}, {"measurement": "viability, T/C", "setting": "[2]", "result": 107, "unit": "%"}, {"measurement": "viability, T/C", "setting": "[3]", "result": 122, "unit": "%"}, {"measurement": "viability, T/C", "setting": "[4]", "result": 104, "unit": "%"}, {"measurement": "viability, T/C", "setting": "[5]", "result": 111, "unit": "%"}, {"measurement": "viability, T/C", "setting": "[6]", "result": 90.9, "unit": "%"}, {"measurement": "viability, T/C", "setting": "[7]", "result": 101, "unit": "%"}, {"measurement": "viability, T/C", "setting": "[8]", "result": 103, "unit": "%"}, {"measurement": "viability, T/C", "setting": "[9]", "result": 95, "unit": "%"}, {"measurement": "viability, T/C", "setting": "[10]", "result": 96.2, "unit": "%"}, {"measurement": "viability, T/C", "setting": "[11]", "result": 117, "unit": "%"}, {"measurement": "viability, T/C", "setting": "[12]", "result": 106, "unit": "%"}, {"measurement": "viability, T/C", "setting": "[13]", "result": 95.7, "unit": "%"}, {"measurement": "viability, T/C", "setting": "[14]", "result": 108, "unit": "%"}, {"measurement": "viability, T/C", "setting": "[15]", "result": 73.7, "unit": "%"}, {"measurement": "viability, T/C", "setting": "[16]", "result": 112, "unit": "%"}, {"measurement": "viability, T/C", "setting": "[17]", "result": 84, "unit": "%"}, {"measurement": "viability, T/C", "setting": "[18]", "result": 70, "unit": "%"}, {"measurement": "viability, T/C", "setting": "[19]", "result": 98.7, "unit": "%"}, {"measurement": "viability, T/C", "setting": "[20]", "result": 102, "unit": "%"}, {"measurement": "viability, T/C", "setting": "[21]", "result": 94.3, "unit": "%"}, {"measurement": "viability, T/C", "setting": "[22]", "result": 75.4, "unit": "%"}, {"measurement": "viability, T/C", "setting": "[23]", "result": 96.7, "unit": "%"}, {"measurement": "viability, T/C", "setting": "[24]", "result": 92.5, "unit": "%"}, {"measurement": "viability, T/C", "setting": "[25]", "result": 88.1, "unit": "%"}, {"measurement": "viability, T/C", "setting": "[26]", "result": 95.2, "unit": "%"}, {"measurement": "viability, T/C", "setting": "[27]", "result": 99.2, "unit": "%"}, {"measurement": "viability, T/C", "setting": "[28]", "result": 106, "unit": "%"}, {"measurement": "viability, T/C", "setting": "[29]", "result": 101, "unit": "%"}, {"measurement": "viability, T/C", "setting": "[30]", "result": 101, "unit": "%"}, {"measurement": "viability, T/C", "setting": "[31]", "result": 93.2, "unit": "%"}, {"measurement": "viability, T/C", "setting": "[32]", "result": 97, "unit": "%"}, {"measurement": "viability, T/C", "setting": "[33]", "result": 98.8, "unit": "%"}, {"measurement": "viability, T/C", "setting": "[34]", "result": 98.5, "unit": "%"}, {"measurement": "viability, T/C", "setting": "[35]", "result": 98.8, "unit": "%"}, {"measurement": "viability, T/C", "setting": "[36]", "result": 77, "unit": "%"}]}]}
